{"source": "patent US20260108483A1", "about": "“METHODS AND COMPOSITIONS FOR PREVENTING THE PROGRESSION OF DIABETIC RETINOPATHY AND RELATED CONDITIONS” (Opus Genetics, Inc., priority 2023, published 2026)", "tested_on": "diabetic retinopathy (moderately severe to severe NPDR or mild PDR)", "test": "Phase 2 placebo-controlled clinical study: three or more step worsening in binocular Diabetic Retinopathy Severity Scale Score", "assay_type": "in vivo, human", "settings": "weeks 12 and 24; 600 mg/day oral (3+2 tablets of 120 mg) vs placebo", "description": "Ability of Compound 1 to prevent the progression of non-proliferative diabetic retinopathy (NPDR) and mild proliferative diabetic retinopathy (PDR) may be evaluated according to a clinical study in which Compound 1 was orally administered to patients suffering from non-proliferative diabetic retinopathy or mild proliferative diabetic retinopathy. Compound 1 has the chemical name (E)-2-((4,5-dimethoxy-2-methyl-3,6-dioxocyclohexa-1,4-dien-1-yl)methylene)undecanoic acid, and is depicted by the following chemical formula: The study was configured as a placebo-controlled, double-masked, randomized, Phase 2 study in approximately 100 subjects with moderately severe to severe NPDR (diabetic retinopathy severity score [DRSS] Level 47 or 53, see FIG. 1) or mild PDR (DRSS Level 61), evaluating safety and efficacy following administration of Compound 1 twice daily for 24 weeks. The study was configured for a 1:1 randomization (placebo: Compound 1). Randomization was stratified by level of disease severity (NPDR or PDR). Subjects with mild PDR were capped at 20% for each arm. Efficacy evaluations at 12 and/or 24 weeks included DRSS, center-involved diabetic macular edema (DME), moderate PDR or PDR-related adverse events (AEs), best-corrected visual acuity (BCVA), and central subfield thickness (CST). Further experimental procedures and results are described below. […]"}
{"smiles": "CCCCCCCCC/C(=C\\C1=C(C)C(=O)C(OC)=C(OC)C1=O)C(=O)O", "note": "[Compound 1, (E)-2-((4,5-dimethoxy-2-methyl-3,6-dioxocyclohexa-1,4-dien-1-yl)methylene)undecanoic acid]", "values": [{"measurement": "preventing the progression of diabetic retinopathy (patients with three or more step worsening in binocular DRSS, FIG. 3)", "value": "effective in preventing the progression of diabetic retinopathy"}]}
